In PMC9174720, “Evaluation of antioxidant and cytotoxic properties of phenolic N-acylhydrazones: structure–activity relationship” (Royal Society Open Science, 2022):
Where two headings read alike, the source gives them in different places.

Columns and labels:
[1] = DPPH radical scavenging assay; type: biochemical; details: for IC50: DPPH 0.05 mM in methanol, incubated 20 and 60 min, absorbance at 517 nm, mean ± s.d. of three measurements, read-out: IC50 for inactivation of DPPH free radical; for stoichiometric factor (SF): SF=[DPPH]/(2×IC50), good antioxidant if SF ≥ 2
Method: The antioxidant screening of all PheNAHs was performed using the 2,2-diphenyl-1-picrylhydrazyl (DPPH) method. The solution of DPPH radical in methanol (0.05 mM, 1 ml) was mixed with the tested compound (20 µl of different concentrations in dimethyl sulfoxide (DMSO) and 980 µl of methanol). The reaction mixture was incubated in the dark at room temperature for 20 and 60 min after which the absorbance of the sample was measured spectrophotometrically at 517 nm. All measurements were performed in triplicate. Methanol was used as a control solution, whereas quercetin and nordihydroguaiaretic acid (NDGA) were used as reference compounds. […] IC50 is defined as the minimal concentration of tested compound required for reaching 50% of a maximum scavenging capacity. The results were presented as mean values ± standard deviation (s.d.) of three independent measurements. The stoichiometric factor (SF) was calculated for all compounds using the equation [45, 46]:1 SF=[DPPH]/(2×IC50)

[2] = test system: HCT-116; test: MTT cytotoxicity assay on HCT-116 cells; type: cell-based, human; details: for IC50: Homo sapiens, HCT-116 cell line, read-out: Growth inhibitory effects IC50; for selectivity index (SI): ratio of IC50 values of MRC-5 and HCT-116, values greater than 1 indicate selectivity toward cancer cell line; for cytotoxic effect in words (from IC50 values): MTT
Method: (§1) In this in vitro study, we investigated the influence of PheNAHs on two model systems: human colorectal carcinoma HCT-116 and human healthy fibroblast cell line MRC-5. Both cell lines of low passages were purchased from the European collection of authenticated cell cultures (ECACC) and were cultivated in Dulbecco's Modified Eagle Medium (DMEM) (Sigma, D5796) cell culture medium supplemented with 10% foetal bovine serum (Sigma, F4135-500 ML) and 1% penicillin/streptomycin (Sigma, P4333-100 ML) in 75 cm^2 culture flasks. The cells were maintained according to the standardized procedure in the incubator with humidified atmosphere supplemented with 5% CO2 at a physiological temperature of 37°C, and after a few passages and a confluence of about 80%, the cells were used in all in vitro experiments (Laboratory for Bioengineering protocol CB-003).
(§2) The ability of synthesized compounds to inhibit the growth of two different cell lines was estimated by a standardized 3-(4,5-dimethylthiazol-2-yl)-2,5-diphenyltetrazolium bromide (MTT) assay (Laboratory for Bioengineering protocol CB-005). The approximative number of 10 000 cells per well (in 96-well microplates) were seeded and kept in the incubator for 24 h to enable cell adhesion. After the incubation period, the cells were treated with investigated compounds in the concentration range from 0,1 to 500 µM dissolved in DMEM. Cytotoxic effect was evaluated 24 and 72 h from treatment by following the number of survived cells, thus the cell viability. MTT assay is based on spectrophotometric measurement of reduction rate of 3-(4,5-dimethylthiazol-2-yl)-2,5-diphenyltetrazolium bromide (MTT, Acros Organics, 158990010) to purple formazan crystals subsequently dissolved in DMSO (Fisher Chemical, D/4121/PB15) on a microplate reader (Rayto 2100C) at 550 nm. The percentage of the survived (viable) cells was estimated by dividing the absorbance of the treatment with the absorbance of the control (non-treated) cells and multiplied by 100 [47]. As positive controls, Leucovorin and Irinotecan were selected as compounds used in colon cancer treatment.
(§3) Biological activity was the result of two individual experiments, performed in triplicate for each dose. Statistical analyses were determined using the one-way analysis of variance (ANOVA) test for multiple comparisons, SPSS (Chicago, IL) statistical software package (SPSS for Windows, v. 17, 2008). The IC50 values were calculated from the dose curves by a computer program (CalcuSyn). IC50 values represent the half-maximal inhibitory concentration of tested compounds to measure the influence in inhibition of cell growth for 50%. […] At the beginning of the process of selecting the anti-cancer drug candidate, it is necessary to make a rough preselection between the tested substances. In vitro analysis on cancer and healthy cell lines is quantified in different ways, selectivity also. The selectivity index (SI) of tested drugs usually refers to the simple ratio of IC50 values determined for cancer and healthy cells. Also, the SI can be used for the expression of many other examples, such as SI between antibacterial and antiviral effect, discrimination of the drugs effect between many cancer cell lines, etc. In our experimentation, the values greater than ‘1’ indicate selectivity of the tested substance toward cancer cell line.

[3] = test system: MRC-5; test: MTT cytotoxicity assay on MRC-5 cells; type: cell-based; details: Homo sapiens, MRC5, MRC-5 cell line, read-out: Growth inhibitory effects IC50
Method: as §1, §2, §3

SMILES	IC50 [1]	IC50 ([2]; 24 h exposure)	IC50 ([2]; 72 h exposure)	selectivity index (SI) ([2]; after 72 h exposure)	IC50 ([3]; 24 h exposure)	IC50 ([3]; 72 h exposure)	stoichiometric factor (SF) [1]	selectivity index (SI) ([2]; after 24 h exposure)	cytotoxic effect in words (from IC50 values) ([2]; 72 h after treatment)	cytotoxic effect in words (from IC50 values) ([2]; 24 and 72 h exposure, 0,1 to 500 µM)
COc1cccc(/C=N/NC(=O)c2ccc(O)cc2)c1O [3d]	> 100000 nM	> 500 µM	94.1 µM	2.3	> 500 µM	213 µM	–	–	–	–
COc1cc(/C=N/NC(=O)c2cc(O)c(O)c(O)c2)cc(OC)c1O [5f]	1100 ± 100 nM	86.9 µM	43.6 µM	0.92	84.3 µM	40 µM	11.4	0.97	–	–
O=C(N/N=C/c1ccc(O)c(O)c1)c1ccccc1O [2h]	1600 nM	> 500 µM	208 µM	–	> 500 µM	> 500 µM	7.8	–	–	–
O=C(N/N=C/c1ccccc1O)c1cc(O)c(O)c(O)c1 [5b]	1200 ± 100 nM	62.6 µM	32.4 µM	1.61	104 µM	52.1 µM	10.4	1.67	–	–
COc1cc(/C=N/NC(=O)c2ccc(O)cc2)cc(OC)c1O [3f]	16600 ± 200 nM	> 500 µM	> 500 µM	–	> 500 µM	> 500 µM	0.8	–	–	–
COc1cc(/C=N/NC(=O)c2ccc(O)cc2)ccc1O [3e]	28400 ± 200 nM	> 500 µM	> 500 µM	–	> 500 µM	> 500 µM	0.4	–	–	–
O=C(N/N=C/c1ccc(O)c(O)c1)c1cc(O)c(O)c(O)c1 [5h]	700 ± 100 nM	> 500 µM	58.8 µM	0.86	> 500 µM	50.6 µM	17.9	–	–	–
COc1cc(C(=O)N/N=C/c2ccccc2)ccc1O [4a]	> 100000 nM	> 500 µM	> 500 µM	–	> 500 µM	> 500 µM	–	–	–	–
O=C(N/N=C/c1ccccc1)c1cc(O)c(O)c(O)c1 [5a]	1300 ± 100 nM	247 µM	63.5 µM	0.93	175 µM	59.2 µM	9.6	0.71	–	–
O=C(N/N=C/c1ccc(O)c(O)c1)c1ccccc1 [1h]	2930 ± 100 nM	> 500 µM	> 500 µM	–	> 500 µM	> 500 µM	4.3	–	–	–
O=C(N/N=C/c1ccccc1O)c1ccccc1 [1b]	> 100000 nM	249 µM	139 µM	>3.59	> 500 µM	> 500 µM	–	>2.01	–	–
O=C(N/N=C/c1ccc(O)cc1O)c1cc(O)c(O)c(O)c1 [5g]	900 ± 100 nM	99.9 µM	77.3 µM	1.02	76.4 µM	78.6 µM	13.9	0.76	–	–
O=C(N/N=C/c1ccccc1)c1ccccc1 [1a]	> 100000 nM	> 500 µM	> 500 µM	–	> 500 µM	> 500 µM	–	–	–	–
O=C(N/N=C/c1ccccc1O)c1ccccc1O [2b]	> 100000 nM	26.9 µM	70.5 µM	3.30	> 500 µM	233 µM	–	>18.59	–	–
COc1cc(C(=O)N/N=C/c2ccc(O)cc2O)ccc1O [4g]	> 100000 nM	194 µM	> 500 µM	–	> 500 µM	307 µM	–	–	–	–
COc1cccc(/C=N/NC(=O)c2ccccc2O)c1O [2d]	> 100000 nM	80.5 µM	26.2 µM	3.3	37.9 µM	87.3 µM	–	–	–	–
O=C(N/N=C/c1ccccc1O)c1ccc(O)cc1 [3b]	> 100000 nM	> 500 µM	101 µM	>4.94	> 500 µM	> 500 µM	–	–	–	–
CCc1c2c(nc3ccc(OC(=O)N4CCC(N5CCCCC5)CC4)cc13)-c1cc3c(c(=O)n1C2)COC(=O)[C@]3(O)CC [irinotecan, Irinotecan, reference compound]	–	> 500 µM	101 µM	0.35	> 500 µM	35.2 µM	–	–	moderate	–
O=c1c(O)c(-c2ccc(O)c(O)c2)oc2cc(O)cc(O)c12 [Quercetin, quercetin, reference compound]	1900 ± 100 nM	–	–	–	–	–	6.6	–	–	–
CC(Cc1ccc(O)c(O)c1)C(C)Cc1ccc(O)c(O)c1 (stereo not drawn) [NDGA, nordihydroguaiaretic acid, reference compound]	1700 ± 100 nM	–	–	–	–	–	7.4	–	–	–
Nc1nc2c(c(=O)[nH]1)N(C=O)C(CNc1ccc(C(=O)N[C@@H](CCC(=O)O)C(=O)O)cc1)CN2 (stereo partly drawn) [leucovorin, Leucovorin, reference compound]	–	> 500 µM	> 500 µM	<0.36	> 500 µM	180 µM	–	–	–	no effect
